Reference: patent publication US20220395451A1, “NOVEL SKIN CARE COMPOSITION” (BEIERSDORF AG, priority 2019, published 2022)
Several values for one entry are separate records, joined by “and”; a condition that tells them apart may be missing. Equal values may be shown once.

Assays:
C. acnes strain C3 = assay: Minimum inhibitory concentration (MIC) of cosmetic excipients, strain C3; type: cell-based, Cutibacterium acnes; conditions: % w/vol; anaerobic incubation 3 days at 37° C.; growth scored visually
Protocol: (§1) In microbiology, the MIC is the lowest concentration of a chemical which prevents visible growth of bacterium. The resulted MIC value depends both on the microorganism and the test compound. The MIC is determined by preparing concentrations series of the test compound in vitro, incubating the solutions with the separate batches of cultured bacteria, and measuring the results using agar dilution or broth microdilution. For the experiments with C. acnes strains C3 and K8, media comprising yeast extract soy peptone and dextrose were used. The MIC is determined by turbidity.
(§2) A total of 125 cosmetic excipients were tested for their compatibility with C. acnes strains C3 and K8. Hydrophilic compounds were tested in a 96-well plate liquid broth format, poorly soluble compounds were pre-dissolved in DMSO before dilution in liquid broth and hydrophobic or solid compounds were tested in an agar well diffusion test assay. The different dilutions of the test excipients in media were prepared in Falcon tubes and then distributed in a deep well plate using a multistepper. Each well received 1.2 ml and was subsequently inoculated with 120 μl of C. acnes bacteria suspension (strain C3 and K8). From the deep well plate 200 μl were transferred in each well of a clear 96 well replicate plate. The leftover was discarded. The plates were then incubated anaerobically for 3 days at 37° C. Following incubation, the test plates were visually examined and wells were scored for growth or complete growth inhibition to define the minimum inhibitory concentration.
(§3) These excipients are listed in the below table with their compatibility values for C. acnes strains C3 and K8. The compatibility values represent the MIC value of the listed ingredients with the tested C. acnes strains. At this concentration [% w/vol] the tested compound starts interfering with the growth of the tested strains. The compounds can be used in formulations at concentrations below this concentration.

C. acnes strain K8 = assay: Minimum inhibitory concentration (MIC) of cosmetic excipients, strain K8; type: cell-based, Cutibacterium acnes; conditions: % w/vol; anaerobic incubation 3 days at 37° C.; growth scored visually
Protocol: as §1, §2, §3

Molecule: CC(CO)CO [methylpropanediol]
- COMPATABILITY VALUE C3 (MIC) (C. acnes strain C3): 4.00%
- COMPATABILITY VALUE C3 (MIC) (C. acnes strain K8): 4.00%

Molecule: CC(=O)Oc1c(C)c(C)c2c(c1C)CCC(C)(CCC[C@H](C)CCC[C@H](C)CCCC(C)C)O2 (stereo partly shown) [tocopheryl acetate]
- COMPATABILITY VALUE C3 (MIC) (C. acnes strain C3): 1.00%
- COMPATABILITY VALUE C3 (MIC) (C. acnes strain K8): 1.00%

Molecule: CCO [ethanol]
- COMPATABILITY VALUE C3 (MIC) (C. acnes strain K8): 3.75%

Molecule: Citric acid/citrate
- COM[…] C3 (MIC) (C. acnes strain C3): 1.30%
- COM[…] C3 (MIC) (C. acnes strain K8): 1.30%

Molecule: O=C(O)CC(O)(CC(=O)O)C(=O)O [citric acid]
- COMPATABILITY VALUE C3 (MIC) (C. acnes strain C3): 0.33%
- COMPATABILITY VALUE C3 (MIC) (C. acnes strain K8): 0.08%

Molecule: CCCCCCC(O)CO (stereo not shown) [caprylyl glycol]
- COMPATABILITY VALUE C3 (MIC) (C. acnes strain C3): 0.18%
- COMPATABILITY VALUE C3 (MIC) (C. acnes strain K8): 0.18%

Molecule: tocopherol
- COMPATABILITY VALUE C3 (MIC) (C. acnes strain C3): 1.50% and 10.00%
- COMPATABILITY VALUE C3 (MIC) (C. acnes strain K8): 1.50% and 10.00%
